{"source": "patent US8268889B2", "about": "“Treatment of ovarian cancer” (Ramot at Tel-Aviv University Ltd., priority 2006, dated 2012)", "key": {"Ras": {"system": "Ras", "assay": "Determination of total Ras by Western immunoblotting with pan anti-Ras antibody", "format": "cell-based, human", "settings": "OVCAR-3 cells; for reduction in Ras: 24 h", "procedure": "(§1) OVCAR-3 cells were plated at a density of 1.5×10^6 cells in 10-cm plates and grown for 24 h in the presence of 25 or 50 μM FTS. The cells were lysed in 0.5 mL of the Ras-binding domain of Raf-1 (RBD) lysis buffer [Herrmann, C., Martin, G. A. and Wittinghofer, A., J Biol Chem 270:2901-05 (1995)] containing 0.1 mM orthovanadate. Lysates containing 50 μg protein were used to determine total Ras by Western immunoblotting with pan anti-Ras antibody (Ab) and lysates containing 1500 μg protein to determine Ras-GTP by the glutathione S-transferase RBD pull-down assay followed by Western immunoblotting with pan anti-Ras Ab and enhanced chemiluminescence, as previously described [Fridman, M., Maruta, H. and Gonez, J., J Biol Chem 275:30363-71 (2000)]. Mouse anti β-tubulin Ab (AK-15, Sigma) was used at a dilution of 1:500 to confirm equal protein loading.\n(§2) In view of the finding that OVCAR-3 cells expressed significant amounts of Ras and active Ras-GTP (FIGS. 1a and b), Applicants examined whether the Ras antagonist FTS would affect the amounts of Ras and Ras-GTP in these cells in the same way as it affects active Ras in other cell lines [Marom, M., supra.; Elad, G., Paz, A., Haklai, R., Marciano, D., Cox, A., Kloog, Y. Biomed Biochim Acta 8:1452:228-42 (1999); Weisz, B., Giehl, K., Gana-Weisz, M. et al. Oncogene 18:2579-88 (1999)]. The cells were grown for 24 h in serum containing medium with or without 25 or 50 μM FTS. Similar conditions were used in earlier studies with other cell lines [Elad, supra.; Weisz, supra.]. […] Quantitative analysis of the immunoblots disclosed that FTS, at concentrations of 25 and 50 μM, caused significant reductions of 5% and 39%, respectively, in Ras and 19% and 41%, respectively, in Ras-GTP (FIG. 1b)."}, "Ras-GTP": {"system": "Ras-GTP", "assay": "Determination of Ras-GTP by GST-RBD pull-down assay and Western immunoblotting", "format": "cell-based, human", "settings": "OVCAR-3 cells; for reduction in Ras-GTP: 24 h", "procedure": "as §1, §2"}, "OVCAR-3 cells [1]": {"system": "OVCAR-3 cells", "assay": "cells", "format": "cell-based", "procedure": "The human epithelial ovarian cell line OVCAR-3 was obtained from the American Tissue Culture Collection. Cells were routinely grown in Roswell Park Memorial Institute 1640 medium containing 10% fetal calf serum, 0.1 mM nonessential amino acids, and 2 mM L-glutamine, at 37° C. in a humidified atmosphere of 95% air/5% CO2. To examine the effect of FTS on the anchorage-dependent cell growth, cells were plated at a density of 10×10^4 cells per well in 24-well plates to which either 0.1% DMSO (control) or the test concentrations of FTS were added after 24 h. […] Cells were stained with 3-(4,5-dimethylthiosol-2-yl)-2,5-diphenyltetrazolium bromide (MTT, Sigma Chemical Co., St. Louis, Mo.), incubated for 90 min, and dissolved in 0.3 mL of 100% DMSO. The extent of staining was determined spectrophotometrically (A570, A630) using an enzyme-linked immunosorbent assay reader. All assays were carried out in quadruplicate samples and were repeated three times.\nAnchorage-dependent cell growth was examined in cells that were grown in the presence of FTS."}, "OVCAR-3 cells [2]": {"system": "OVCAR-3 cells", "assay": "cells", "format": "cell-based", "settings": "Homo sapiens, 50 μM FTS alone, read-out: inhibition of cell growth", "procedure": "OVCAR-3 cells were plated at a density of 10×10^4 cells per well in 24-well plates and grown for 3 days in the presence of 50 μM FTS. […] This protocol was chosen in order to induce only a small cytotoxic effect, thus enabling a determination of any possible enhanced effect with the Ras inhibitor. The number of live cells was evaluated 3 days later by MTT, as described earlier.\nThus, the greater than additive effect of these two drugs was manifested in an additional decrease of 35% in cell number, which was accounted for by death of the cells."}, "[3]": {"settings": "FTS alone, concentration not given"}}, "data": [{"compound": "CC(C)=CCC/C(C)=C/CC/C(C)=C/CSc1ccccc1C(=O)O", "note": "[FTS, farnesylthiosalicylic acid]", "values": [{"measurement": "reduction in Ras", "setting": "Ras; 25 μM FTS", "result": 5, "unit": "%"}, {"measurement": "reduction in Ras", "setting": "Ras; 50 μM FTS", "result": 39, "unit": "%"}, {"measurement": "Ras reduced (summary statement)", "setting": "Ras; [3]", "result": 40, "unit": "%"}, {"measurement": "reduction in Ras-GTP", "setting": "Ras-GTP; 25 μM FTS", "result": 19, "unit": "%"}, {"measurement": "reduction in Ras-GTP", "setting": "Ras-GTP; 50 μM FTS", "result": 41, "unit": "%"}, {"measurement": "Ras-GTP reduced (summary statement)", "setting": "Ras-GTP; [3]", "result": 40, "unit": "%"}, {"measurement": "IC50", "setting": "OVCAR-3 cells [1]; Homo sapiens, OVCAR-3, read-out: IC50 (concentration causing 50% inhibition of cell growth)", "result": 54, "unit": "µM"}, {"measurement": "foci formation and growth", "setting": "OVCAR-3 cells [1]; OVCAR-3 cultures, 7 days with 25 or 50 μM FTS", "result": "strongly inhibited"}, {"measurement": "inhibition at 50 µM", "setting": "OVCAR-3 cells [2]", "result": 45, "unit": "%"}]}]}
